Article PMC8658963, “Synthesis and Evaluation of Trypanocidal Activity of Chromane-Type Compounds and Acetophenones” (Molecules, 2021)
Like-named read-outs stand apart in the source and are kept apart here.

Tests used:
[1] = in vitro; conditions: human, Cytotoxicity (LC50)
Procedure: (§1) Cytotoxicity was evaluated in the human monocyte cell line U-937 (ATCC CRL-1593.2) at the exponential growth phase, adjusted at 1 × 10^5 cells/mL in complete RPMI-1640 medium (RPMI-1640 enriched with 200 mM L-glutamine, 10% inactivated fetal bovine serum (FBS) and 1% of a mixture of 10,000 IU/mL penicillin plus […] streptomycin). Then, in each well of a 96-well tissue culture plate were dispensed […] of cells plus […] of each compound (as one of six serials 1:2 dilution concentrations starting at 368 µM prepared in the same medium). Doxorubicin was included as an internal positive control under the same dilution pattern, starting at 18 µM whereas unexposed cells were used as negative controls. Afterward, cells were incubated for 72 h at 37 °C and 5% CO2. Cell viability was assayed by the MTT reduction assay according to the optical density (O.D) at 570 nm of the resulting reduction of formazan in a Varioskan Flash Multimode Reader (Thermo Scientific, Waltham, MA, USA). Nonspecific absorbance was corrected by subtracting the O.D of the blank solution that corresponded to complete RPMI-1640 medium. The assay was done in triplicate in at least two independent experiments.
(§2) The cytotoxicity was expressed as the medial lethal concentration (LC50), while the trypanocidal activity was defined as the median effective concentration (EC50) according to the percentage of inhibition of cells and parasites, respectively, as described elsewhere. Both LC50 and EC50 were calculated by the Probit analysis. […] Similarly, the trypanocidal activity was graded according to EC50 values, based on the hit criteria proposed by others into high when EC50 was lower than 10 μM, moderate when EC50 values were higher than 10 μM but lower than 50 μM and, low when EC50 was higher than 50 μM. The relation between cytotoxicity and trypanocidal activity was expressed as the index of selectivity (IS) that corresponded to the ratio when dividing the LC50 by the EC50.

[2] = system: intracellular amastigotes of T. cruzi (Tulahuen strain transfected with the β-galactosidase gene); experiment: Anti-trypanosomal activity, β-galactosidase readout in infected U937 macrophages, 72 h; type: cell-based, Trypanosoma cruzi; conditions: for SI (index of selectivity, IS = LC50/EC50): LC50 in U937 cells divided by EC50 against T. cruzi; for Trypanocidal activity compared with the control drug BNZ / Trypanocidal activity (grade): T. cruzi intracellular amastigotes; for Trypanocidal activity compared with the control drug BNZ: result in words
Procedure: This activity was carried out in intracellular amastigotes of T. cruzi (Tulahuen strain transfected with the β-galactosidase gene. Briefly, metacyclic trypomastigotes were cultured at 26 °C for ten days in a modified NNN (Novy−McNeal−Nicolle) medium. U937 cells were seeded in 96-well tissue culture plates at a density of 2.5 × 10^4 cells in 100 μL of complete RPMI-1640 medium/well and exposed for 24 h to phorbol myristate acetate (1 ng/mL) to induce transformation of monocytes into macrophages. Cells were infected with trypomastigotes (5 parasites per cell) and incubated for 24 h at 37 °C, 5% CO2. Wells were washed twice with warm phosphate buffer solution (PBS) to remove noninternalized parasites, and then were added 100 μL of complete RPMI-1640 medium and 100 μL of each concentration of compound (50, 12.5, 3.125 μM). BNZ, at the same concentrations, was used as internal control for trypanocidal activity (positive control), and nontreated cells as controls for infection (negative control). After 72 h of incubation 37 °C, 5% CO2, the viability of intracellular amastigotes was determined by measuring the β-galactosidase activity. For this, 100 μM of Chlorophenol red-β-D- galactopyranoside (CPRG), and 0.1% Nonidet P-40 was added to each well and incubated for 4 h at 37 °C, […] protected from light. After that, measurement β-galactosidase activity was measured at 570 nm on a Varioskan, Thermo spectrophotometer. Nonspecific absorbance was subtracted from the measurement. Infected cells exposed to benznidazole were used as controls for anti-trypanosomal activity. Determinations were done in triplicate with at least two independent experiments.

[3] = system: human monocyte cell line U-937 (ATCC CRL-1593.2); experiment: Cytotoxic activity, MTT reduction assay, 72 h; conditions: for Cytotoxicity level (grade): U937 cells, graded by LC50; for CC50 / Cytotoxicity (LC50): human, 72 h
Procedure: as §1, §2

[4] = Trypanosoma cruzi, TULAHUEN, U-937, 72 h, read-out: Trypanocidal Activity (EC50), intracellular amastigotes of T. cruzi Tulahuen in U937 macrophages, 72 h, average ± SD (SEM)
[5] = Trypanosoma cruzi, TULAHUEN, U-937, 72 h, intracellular amastigotes of T. cruzi Tulahuen in U937 macrophages, 72 h, average ± SD (SEM), read-out: Trypanocidal Activity (EC50)
[6] = Trypanosoma cruzi, TULAHUEN, U-937, T. cruzi intracellular amastigotes, graded by EC50, read-out: Trypanocidal activity (grade)
[7] = Trypanosoma cruzi, TULAHUEN, U-937, read-out: Trypanocidal activity (grade), T. cruzi intracellular amastigotes, graded by EC50
[8] = read-out: Trypanocidal Activity (EC50), intracellular amastigotes of T. cruzi Tulahuen in U937 macrophages, 72 h, average ± SD (SEM)

SMILES	CC50 at 72 h [1]	SI (index of selectivity, IS = LC50/EC50) [2]	Trypanocidal activity compared with the control drug BNZ [2]	EC50 [2, 4]	EC50 [2, 5]	also measured
COCOc1cc2oc(-c3ccc(OC)cc3)cc(=O)c2cc1CC=C(C)C [Compound 29, 7-(Methoxymethoxy)-2-(4-methoxyphenyl)-6-(3-methylbut-2-en-1-yl)-4H-chromen-4-one]	17 ± 0.2 µM	<2	much better trypanocidal activity than the control drug BNZ	> 9.8 µM		
O=C(Cn1ccnc1[N+](=O)[O-])NCc1ccccc1 [BNZ, benznidazole, reference compound]	> 768 µM				56.5 ± 1.5 µM	Cytotoxicity level (grade) [3]: no cytotoxicity; EC50 [2, 6]: 10 to 50 µM
CC(=O)c1ccc(O)c(CC=C(C)C)c1O [Compound 15, 1-(2,4-Dihydroxy-3-(3-methylbut-2-en-1-yl)phenyl)ethan-1-one]	25.2 ± 4.6 µM	1.2		20.7 ± 1.1 µM		EC50 [2, 7]: 10 to 50 µM
CC(=O)c1cc(CC=C(C)C)c(O)c(O)c1O [Compound 18, 1-(2,3,4-Trihydroxy-5-(3-methylbut-2-en-1-yl)phenyl)ethan-1-one]	< 10 µM					Cytotoxicity level (grade) [3]: high (high when LC50 values were lower than 50 μM); CC50 [3]: 5 ± 1.7 µM
CC(=O)c1cc(CC=C(C)C)c(O)cc1O [Compound 14, 1-(2,4-Dihydroxy-5-(3-methylbut-2-en-1-yl)phenyl)ethan-1-one]	34 ± 4.9 µM	<2		> 17 µM		
CC(=O)c1ccc(O)c(O)c1O [Compound 8, 1-(2,3,4-Trihydroxyphenyl)ethan-1-one]	> 200 µM	>10.9	much better trypanocidal activity than the control drug BNZ		18.3 ± 1.1 µM	EC50 [2, 6]: 10 to 50 µM
COc1cccc2c1C(=O)c1c(O)c3c(c(O)c1C2=O)C[C@@](O)(C(=O)CO)C[C@@H]3O[C@H]1C[C@H](N)[C@H](O)[C@H](C)O1 [DOX, doxorubicin, reference compound]	0.5 µM					
CC(C)=CCc1cc2c(=O)ccoc2c(O)c1O [Compound 26, 7,8-Dihydroxy-6-(3-methylbut-2-en-1-yl)-4H-chromen-4-one]		4.59	much better trypanocidal activity than the control drug BNZ	< 10 µM		Cytotoxicity (LC50) [3]: >200 µM; EC50 [2, 8]: 10.3 µM
CC(C)=CCc1cc2c(=O)ccoc2cc1O [Compound 23, 7-Hydroxy-6-(3-methylbut-2-en-1-yl)-4H-chromen-4-one]	> 200 µM	>10		> 20 µM		
CC(=O)c1c(O)ccc(CC=C(C)C)c1O [Compound 16, 1-(2,6-Dihydroxy-3-(3-methylbut-2-en-1-yl)phenyl)ethan-1-one]	< 10 µM	<2		> 4 µM		Cytotoxicity level (grade) [3]: high (high when LC50 values were lower than 50 μM); CC50 [3]: 7.8 ± 3.1 µM
COCOc1cc2oc(-c3ccc(Cl)cc3)cc(=O)c2cc1CC=C(C)C [Compound 30, 2-(4-Chlorophenyl)-7-(methoxymethoxy)-6-(3-methylbut-2-en-1-yl)-4H-chromen-4-one]	27.2 ± 3.3 µM	<2	much better trypanocidal activity than the control drug BNZ	> 13.6 µM		
CC(=O)c1ccc(O)cc1O [Compound 5, 1-(2,4-Dihydroxyphenyl)ethan-1-one]	54 ± 0.5 µM	3.0			17.8 ± 0.8 µM	
O=c1ccoc2cc(O)ccc12 [Compound 10, 7-Hydroxy-4H-chromen-4-one]	23.4 ± 6.4 µM	<2			> 11.7 µM	
CC(=O)c1cc(O)ccc1O [Compound 6, 1-(2,5-Dihydroxyphenyl)ethan-1-one]	< 10 µM		much better trypanocidal activity than the control drug BNZ			Cytotoxicity level (grade) [3]: high (high when LC50 values were lower than 50 μM); CC50 [3]: 6.3 µM
O=c1ccoc2cccc(O)c12 [Compound 12, 5-Hydroxy-4H-chromen-4-one]	> 100 µM	>5.0	much better trypanocidal activity than the control drug BNZ		19.9 ± 1.3 µM	EC50 [2, 6]: 10 to 50 µM
COCOc1cc(O)c(C(=O)C=Cc2ccc(Cl)cc2)cc1CC=C(C)C [Compound 28, 3-(4-Chlorophenyl)-1-(2-hydroxy-4-(methoxymethoxy)-5-(3-methylbut-2-en-1-yl)phenyl)prop-2-en-1-one]		<2	much better trypanocidal activity than the control drug BNZ	> 0.3 µM		Cytotoxicity level (grade) [3]: high (high when LC50 values were lower than 50 μM)
CC(=O)c1c(O)cc(O)c(CC=C(C)C)c1O [Compound 17, 1-(2,4,6-Trihydroxy-3-(3-methylbut-2-en-1-yl)phenyl)ethan-1-one]	21.2 ± 6.9 µM	2.8		< 10 µM		EC50 [2, 8]: 7.5 µM
CC(=O)c1c(O)cc(O)cc1O [Compound 9, 1-(2,4,6-Trihydroxyphenyl)ethan-1-one]	> 200 µM	>4.1			49.3 ± 9 µM	EC50 [2, 6]: 10 to 50 µM
O=c1ccoc2ccc(O)cc12 [Compound 11, 6-Hydroxy-4H-chromen-4-one]	28 ± 1.9 µM	2.4	much better trypanocidal activity than the control drug BNZ		11.8 ± 0.3 µM	EC50 [2, 6]: 10 to 50 µM
O=c1ccoc2c(O)c(O)ccc12 [Compound 13, 7,8-Dihydroxy-4H-chromen-4-one]	43 ± 0.9 µM	0.3			154 ± 26.8 µM	Trypanocidal activity (grade) ([2]; graded by EC50): very low
CC(C)=CCc1c(O)ccc2c(=O)ccoc12 [Compound 24, 7-Hydroxy-8-(3-methylbut-2-en-1-yl)-4H-chromen-4-one]	> 100 µM	>0.9		111 ± 18.5 µM		Trypanocidal activity (grade) ([2]; graded by EC50): very low
COCOc1cc(O)c(C(=O)C=Cc2ccc(OC)cc2)cc1CC=C(C)C [Compound 27, 1-(2-Hydroxy-4-(methoxymethoxy)-5-(3-methylbut-2-en-1-yl)phenyl)-3-(4-methoxyphenyl)prop-2-en-1-one]	43.4 ± 7.3 µM	1.2		35.3 ± 1.1 µM		EC50 [2, 7]: 10 to 50 µM
CC(C)=CCc1ccc2occc(=O)c2c1O [Compound 25, 5-Hydroxy-6-(3-methylbut-2-en-1-yl)-4H-chromen-4-one]		>5.8	much better trypanocidal activity than the control drug BNZ	17.3 ± 0.4 µM		Cytotoxicity (LC50) [3]: 47.1 ± 5.5 µM; EC50 [2, 7]: 10 to 50 µM
